Experimental data from patent US20220125959A1, “PROSTATE-SPECIFIC MEMBRANE ANTIGEN (PSMA) INHIBITORS AS DIAGNOSTIC AND RADIONUCLIDE THERAPEUTIC AGENTS” (FIVE ELEVEN PHARMA INC., priority 2019, published 2022).

Test system: PIP tumor and PC3 tumor
Experiment: Biodistribution of 125I labeled compounds 17, 18, 26 and 27 in tumor bearing nude mice
Format: in vivo
Settings: for Biodistribution: Bladder* / Biodistribution: Stomach* / Biodistribution: large intestine* / Biodistribution: small intestine*: organ with content; for PIP/blood / PIP/muscle: ratio
Experimental: Radioiodination and Purification: 100 μg of either precursor 13, 14, 22 or 23 were dissolved in 100 μL EtOH; 22 μL Na^125I (1033-1118 μCi in 0.1 N NaOH), 100 μL 1N HCl and 100 μL 3% H2O2 were added. After 15 minutes at room temperature, the reaction was stopped by adding 150 μL sat. NaHSO3. The reaction mixture was slowly added to 1.5 mL sat. NaHCO3. Vial was rinsed with 1000 μL EtOH and mixture was diluted further to 10 mL mL water. The active sample was transferred onto an activated C4 mini column. The mixture was pushed through, washed twice with 3 mL water and the product was eluted with 1 mL ACN. Added 100 μL DMSO. The mixture was concentrated to ˜100 μL and purified by HPLC (Agilent Eclipse XCD C18 150×4.6 mm, 5 μm; 4 mL/min, gradient (ACN and water; 0-1 min (20/80), 1-16 min (20/80-100/0), 16-16.5 min (100/0-20/80), 16.5-20 min 20/80) (collected every minute). The sample was blown to dryness under argon, re-dissolved in 500 μL CH2Cl2 and 1 mL TFA was added at room temperature. After 1 hr the solution was blown to dryness and activity taken into 1 mL EtOH (10 μL saturated ascorbic acid/EtOH was added). Isolated activities for [^125I]17, 18, 26, and 27 were 197, 189, 600 and 197 μCi respectively. A representative picture of HPLC profiles (FIG. 3) for radiolabeled protected (intermediate), cold standard and radioactive trace of final compound is shown for [^125I]26.
For iv injection 150 μL of labeled solution was diluted with saline to 3.75 mL. Mice were injected with 2˜3 μCi of [^125I]18, 27, 26, and 18 in 0.15 mL saline. Injected radioactivity was 2 to 3 μCi.
Biodistribution study of [^125I]18, 27, 26, and 18 in tumor bearing nude mice were evaluated for their ability to localization of PSMA positive tumor (Tables 5, 6, 7 and 8). It was observed that [^125I]26 and [^125I] […] These new agents are valuable for radionuclide therapy, when labeled with beta or alpha-emitting isotopes; but these agents will also be useful as diagnostic agents when labeled with gamma-emitting isotopes.

SMILES: O=C(O)CC[C@H](NC(=O)N[C@@H](CCCCNC(=O)[C@H](Cc1ccccc1)NC(=O)COc1ccc(C[C@H](NC(=O)[C@H](CCC(=O)O)NC(=O)[C@H](CCC(=O)O)NC(=O)c2ccc([125I])cc2)C(=O)O)cc1)C(=O)O)C(=O)O [[^125I]27]
- Biodistribution: Blood (1 h): 0.47 ± 0.07 % ID/g
- Biodistribution: Bone (1 h): 0.94 ± 0.21 % ID/g
- Biodistribution: Heart (1 h): 2.60 ± 0.10 % ID/g
- Biodistribution: Kidney (1 h): 127.77 ± 8.24 % ID/g
- Biodistribution: Liver (1 h): 1.72 ± 0.11 % ID/g
- Biodistribution: Lung (1 h): 3.53 ± 1.35 % ID/g
- Biodistribution: Muscle (1 h): 1.05 ± 0.07 % ID/g
- Biodistribution: PC3 tumor (1 h): 1.99 ± 0.17 % ID/g
- Biodistribution: PIP tumor (1 h): 17.19 ± 3.74 % ID/g
- Biodistribution: Pancreas (1 h): 1.32 ± 0.46 % ID/g
- Biodistribution: Skin (1 h): 2.68 ± 0.47 % ID/g
- Biodistribution: Spleen (1 h): 12.25 ± 3.36 % ID/g
- Biodistribution: gland (1 h): 3.59 ± 1.03 % ID/g
- Biodistribution: thyroid (1 h): 39.72 ± 12.95 % ID/g
- Biodistribution: Bladder* (1 h): 53.39 ± 19.82 % ID/g
- Biodistribution: Stomach* (1 h): 0.55 ± 0.21 % ID/g
- Biodistribution: large intestine* (1 h): 1.13 ± 0.52 % ID/g
- Biodistribution: small intestine* (1 h): 1.52 ± 0.45 % ID/g
- PIP/blood (1 h): 36.90 ± 8.14
- PIP/muscle (1 h): 16.57 ± 4.28
- Biodistribution: Blood (4 h): 0.32 ± 0.12 % ID/g
- Biodistribution: Bone (4 h): 0.56 ± 0.05 % ID/g
- Biodistribution: Heart (4 h): 1.36 ± 0.33 % ID/g
- Biodistribution: Kidney (4 h): 138.08 ± 31.03 % ID/g
- Biodistribution: Liver (4 h): 1.28 ± 0.63 % ID/g
- Biodistribution: Lung (4 h): 1.86 ± 0.24 % ID/g
- Biodistribution: Muscle (4 h): 0.69 ± 0.21 % ID/g
- Biodistribution: PC3 tumor (4 h): 1.67 ± 0.44 % ID/g
- Biodistribution: PIP tumor (4 h): 17.36 ± 2.57 % ID/g
- Biodistribution: Pancreas (4 h): 1.07 ± 0.31 % ID/g
- Biodistribution: Skin (4 h): 2.03 ± 0.39 % ID/g
- Biodistribution: Spleen (4 h): 13.16 ± 4.01 % ID/g
- Biodistribution: gland (4 h): 3.57 ± 0.54 % ID/g
- Biodistribution: thyroid (4 h): 60.34 ± 22.28 % ID/g
- Biodistribution: Bladder* (4 h): 38.17 ± 21.99 % ID/g
- Biodistribution: Stomach* (4 h): 0.96 ± 0.55 % ID/g
- Biodistribution: large intestine* (4 h): 1.35 ± 0.48 % ID/g
- Biodistribution: small intestine* (4 h): 0.83 ± 0.34 % ID/g
- PIP/blood (4 h): 58.93 ± 20.54
- PIP/muscle (4 h): 27.34 ± 10.28
- Liver uptakes (mouse, in vivo): low
- Uptakes in PIP tumors, kidneys and spleen compared to [125I]17 and [125I]18 (mouse, in vivo): higher uptakes
